Results taken from patent publication US7332495B2 (priority 2002, dated 2008).

System: rats
Assay: Spontaneous withdrawal tests (body weight)
Assay type: in vivo
Settings: for Weight after withdrawal compared with weight one day before withdrawal: IV-12-2 100 mg/kg
[1] = IV-12-1 (75 mg/kg), 162 h after withdrawal
[2] = IV-12-1 (75 mg/kg), 168 h after withdrawal
[3] = IV-12-2 (75 mg/kg), 12 h after withdrawal
[4] = IV-12-2 (75 mg/kg), 18 h after withdrawal
[5] = IV-12-2 (75 mg/kg), 24 h after withdrawal
[6] = IV-12-2 (75 mg/kg), 36 h after withdrawal
[7] = IV-12-2 (75 mg/kg), 42 h after withdrawal
[8] = IV-12-2 (75 mg/kg), 48 h after withdrawal
[9] = IV-12-2 (75 mg/kg), 66 h after withdrawal
[10] = IV-12-2 (75 mg/kg), 72 h after withdrawal
[11] = IV-12-2 (75 mg/kg), 84 h after withdrawal
[12] = IV-12-2 (75 mg/kg), 90 h after withdrawal
[13] = IV-12-2 (75 mg/kg), 96 h after withdrawal
[14] = IV-12-2 (75 mg/kg), 108 h after withdrawal
[15] = IV-12-2 (75 mg/kg), 120 h after withdrawal
[16] = IV-12-2 (75 mg/kg), 138 h after withdrawal
[17] = IV-12-2 (75 mg/kg), 144 h after withdrawal
[18] = IV-12-2 (75 mg/kg), 156 h after withdrawal
[19] = IV-12-2 (75 mg/kg), 162 h after withdrawal
[20] = IV-12-2 (75 mg/kg), 168 h after withdrawal

Nc1ccc(CN2CCN(CC(=O)c3ccccc3)CC2)cc1 [IV-12, N^1-(4-aminobenzyl)-N^4-phenacyl piperazine]
Weight (IV-12-1 (75 mg/kg), 156 h after withdrawal): 279.0 ± 44 g
Increase (%) of weight [1]: 12.4%
Weight [1]: 271.0 ± 44 g
Increase (%) of weight [2]: 11.7%
Weight [2]: 269.2 ± 45 g
Weight (IV-12-1 (75 mg/kg), before withdraw): 241.1 ± 38 g
Weight after withdrawal compared with weight one day before withdrawal (♀, 42 h after withdrawal): 1.01 ± 0.05
Weight after withdrawal compared with weight one day before withdrawal (♀, 66 h after withdrawal): 1.01 ± 0.06
Weight after withdrawal compared with weight one day before withdrawal (♀, 90 h after withdrawal): 1.02 ± 0.06
Weight after withdrawal compared with weight one day before withdrawal (♀, 114 h after withdrawal): 1.02 ± 0.07
Weight after withdrawal compared with weight one day before withdrawal (♀, 138 h after withdrawal): 1.04 ± 0.07
Weight after withdrawal compared with weight one day before withdrawal (♀, 162 h after withdrawal): 1.04 ± 0.07
Weight after withdrawal compared with weight one day before withdrawal (♂, 18 h after withdrawal): 0.99 ± 0.04
Weight after withdrawal compared with weight one day before withdrawal (♂, 42 h after withdrawal): 1.00 ± 0.04
Weight after withdrawal compared with weight one day before withdrawal (♂, 66 h after withdrawal): 1.00 ± 0.05
Weight after withdrawal compared with weight one day before withdrawal (♂, 90 h after withdrawal): 1.00 ± 0.04
Weight after withdrawal compared with weight one day before withdrawal (♂, 114 h after withdrawal): 1.01 ± 0.04
Weight after withdrawal compared with weight one day before withdrawal (♂, 138 h after withdrawal): 1.03 ± 0.06
Weight after withdrawal compared with weight one day before withdrawal (♂, 162 h after withdrawal): 1.04 ± 0.08
Increase (%) of weight [3]: 2.0%
Weight [3]: 259.8 ± 34 g
Increase (%) of weight [4]: 2.0%
Weight [4]: 259.8 ± 33 g
Increase (%) of weight [5]: 0.4%
Weight [5]: 255.9 ± 32 g
Increase (%) of weight [6]: 1.9%
Weight [6]: 259.5 ± 33 g
Increase (%) of weight [7]: 1.4%
Weight [7]: 258.5 ± 32 g
Increase (%) of weight [8]: 0.8%
Weight [8]: 256.8 ± 31 g
Weight (IV-12-2 (75 mg/kg), 60 h after withdrawal): 259.6 ± 31 g
Increase (%) of weight [9]: 0.8%
Weight [9]: 256.8 ± 27 g
Increase (%) of weight [10]: 0.4%
Weight [10]: 255.7 ± 29 g
Increase (%) of weight [11]: 3.4%
Weight [11]: 263.6 ± 30 g
Increase (%) of weight [12]: 1.3%
Weight [12]: 258.2 ± 30 g
Increase (%) of weight [13]: 0.9%
Weight [13]: 257.1 ± 28 g
Increase (%) of weight [14]: 4.5%
Weight [14]: 266.3 ± 33 g
Increase (%) of weight (IV-12-2 (75 mg/kg), 114 h after withdrawal): 2.1%
Increase (%) of weight [15]: 1.4%
Weight [15]: 258.3 ± 29 g
Weight (IV-12-2 (75 mg/kg), 132 h after withdrawal): 272.6 ± 35 g
Increase (%) of weight [16]: 4.0%
Weight [16]: 264.9 ± 32 g
Increase (%) of weight [17]: 3.5%
Weight [17]: 263.6 ± 32 g
Increase (%) of weight [18]: 6.6%
Weight [18]: 271.5 ± 40 g
Increase (%) of weight [19]: 4.9%
Weight [19]: 267.2 ± 38 g
Increase (%) of weight [20]: 4.5%
Weight [20]: 266.3 ± 36 g
Weight (IV-12-2 (75 mg/kg), before withdraw): 254.8 ± 32 g
